Source: US20060160703A1, “Selective herbicides based on substituted cyclic dicarbonyl compounds and safeners” (priority 2003, published 2006)

Assays:
Format in all cases: in vivo
[1] = system: Winter wheat; assay: Outdoor trial, post-emergence, tank mix (Example 1); conditions: herbicide 0.120 kg/ha, combinations: tank mix mefenpyr-diethyl:compound (I) = 2:1
Procedure: (§1) Seeds of monocotyledonous and dicotyledonous weed and crop plants are placed into sandy loam in wood fiber pots or in plastic pots, covered with soil and cultivated in a greenhouse, including during the vegetation period outdoors outside of the greenhouse, under good growth conditions. Two-three weeks after sowing, the test plants are treated at the one- to three-leaf stage. […], formulated as wettable powders (WP) or emulsifiable concentrates (EC) are, in various dosages with a water application rate of 300 l/ha (converted), with added wetting agent (0.2 to 0.3%) sprayed onto the plants and the surface of the soil. Three to four weeks after the treatment of the test plants, the effect of the preparations is rated visually in comparison to untreated controls (herbicidal effect in percent (%): 100% effect=plants have died, 0% effect=like control plants).
(§2) If it is additionally to be tested as to whether safeners can improve the plant compatibility of test substances in the case of crop plants, the following options are used for applying the safener:
(§3) the safener is applied together with the test substance as a tank mix (the amount of safener is stated in g/ha or as a ratio, based on the herbicide).
(§4) By comparing the effect of the test substances on crop plants without or with safener treatment, it is possible to assess the effect of the safener substance. [drawing 61] [drawing 62]
(§5) Outdoor trial/Post-emergence
(§6) Ratio mefenpyr-diethyl:compound of the formula (I)=2:1

[2] = system: Summer wheat; assay: as above; conditions: herbicide 0.120 kg/ha, combinations: tank mix mefenpyr-diethyl:compound (I) = 2:1
Procedure: as §1, §2, §3, §4, §5, §6

[3] = system: Winter barley; assay: as above; conditions: herbicide 0.120 kg/ha, combinations: tank mix mefenpyr-diethyl:compound (I) = 2:1
Procedure: as §1, §2, §3, §4, §5, §6

[4] = system: Summer barley; assay: as above; conditions: herbicide 0.120 kg/ha, combinations: tank mix mefenpyr-diethyl:compound (I) = 2:1, 100% = plants have died, 0% = like control
Procedure: as §1, §2, §3, §4, §5, §6

[5] = system: Corn of the Cultivar Lorenzo; assay: Greenhouse trial, post-emergence, corn (Example 3)
Procedure: as §1, §2
seeds of the crop plants are, before sowing, dressed with the safener substance (the amount of safener is stated in percent, based on the weight of the seed)
(§7) before the application of the test substances, the crop plants are sprayed with the safener at a certain application rate per hectare (usually 1 day before the application of the test substances).
as §4
Greenhouse Trial/Post-Emergence
Corn of the Cultivar Lorenzo
Addition of Safener: • a) Before sowing, seeds of the crop plants are dressed with the compound of the formula (IIe-5) (0.5% of safener, based on the weight of the seeds). • b) One day before the application of the compounds of the formula (I), the crop plants are treated with the compound of the formula (IIe-5) (application rate 100 g/ha). • c) One day before the application of the compounds of the formula (I), the crop plants are treated with isoxadifen (application rate 100 g/ha)
For the spray treatment, the herbicide was formulated as WP20 and the safener as WP10.

[6] = system: Summer wheat; assay: Greenhouse trial, post-emergence, safener one day before (Example 2); conditions: combinations: safener 100 g/ha one day before
Procedure: as §1, §2, §7, §4
(§8) Greenhouse trial/Post-emergence
(§9) One day before the application of the compounds of the formula (I), the crop plants are treated with the safener (application rate 100 g/ha).

[7] = system: Summer barley; assay: as above; conditions: combinations: safener 100 g/ha one day before
Procedure: as §1, §2, §7, §4, §8, §9

[8] = herbicide 0.013 kg/ha; greenhouse, post-emergence; corn cultivar Lorenzo; safener by method a), b) or c) as
[9] = herbicide 0.025 kg/ha; greenhouse, post-emergence; corn cultivar Lorenzo; safener by method a), b) or c) as
[10] = herbicide 0.050 kg/ha; greenhouse, post-emergence; corn cultivar Lorenzo; safener by method a) IIe-5 seed dressing 0.5%, b) IIe-5 100 g/ha one day before, c) isoxadifen 100 g/ha one day before

SMILES	herbicidal effect in percent, Winter wheat [1] [%]	herbicidal effect in percent, Summer wheat [2] [%]	herbicidal effect in percent, Winter barley [3] [%]	herbicidal effect in percent, Summer barley [4] [%]	herbicidal effect in percent, Corn [5, 8] [%]	herbicidal effect in percent, Corn [5, 9] [%]	herbicidal effect in percent, Corn [5, 10] [%]	herbicidal effect in percent, Summer wheat ([6]; herbicide 0.100 kg/ha) [%]	herbicidal effect in percent, Summer barley ([7]; herbicide 0.100 kg/ha) [%]	herbicidal effect in percent, Summer wheat ([6]; herbicide 0.025 kg/ha) [%]	herbicidal effect in percent, Summer wheat ([6]; herbicide 0.050 kg/ha) [%]	herbicidal effect in percent, Summer barley ([7]; herbicide 0.025 kg/ha) [%]	herbicidal effect in percent, Summer barley ([7]; herbicide 0.050 kg/ha) [%]
CCc1cc(Cl)cc(Cl)c1C1(Cl)C(=O)NC2(CCC(OC)CC2)C1=O (stereo not drawn) [I-1-1]	20	15	30	40	99	100	100	–	–	–	–	–	–
CCc1cc(Br)cc(CC)c1C1(Cl)C(=O)NC(C)(C)C1=O (stereo not drawn) [I-1-3]	–	–	–	–	0	0	85	–	–	–	–	–	–
CCc1cc(Br)cc(CC)c1C1(Cl)C(=O)NC2(CCCCC2)C1=O (stereo not drawn) [I-1-4]	–	–	–	–	–	–	–	10	10	–	–	–	–
CCc1cc(Cl)cc(Br)c1C1(Cl)C(=O)NC2(CCCCC2)C1=O (stereo not drawn) [I-1-5]	–	–	–	–	–	–	–	65	92	30	60	20	50
Cc1cc(-c2ccc(Cl)cc2)cc(C)c1C1(Cl)C(=O)N2CCCCN2C1=O [I-4-1]	–	–	–	–	–	–	–	60	80	20	60	20	80
Cc1cc(-c2ccc(Cl)cc2)cc(C)c1C1(Cl)C(=O)N2CCOCCN2C1=O [I-4-2]	–	–	–	–	–	–	–	97	97	60	97	40	95
